# Experimental data from US10722498B2, “Acetazolamide ophthalmic solution” (INNOVATIVE NANO & MICRO TECHNOLOGIES PVT LTD (INM …, priority 2017, dated 2020).
# Tests used:
# [1] = tested on: New Zealand white rabbit eyes; assay: Measurement of intraocular pressure in rabbit eyes (tonometry); assay type: in vivo; conditions: rabbits, oral acetazolamide 12.92 mg/kg
# Description: The inhibition of the ocular hypertension was determined by the following protocol: The experiments were performed in new New Zealand white rabbit eyes by using tonometry method. Rabbits were divided into groups; where each group consists of 4 animals. Group 1, Group 2, Group 3, Group 4 and Group 5 of Rabbits are administered with the predetermined concentrations of ophthalmic compositions of Example 1, 2, 3, 4 and 5 respectively. Group 6 of Rabbits are administered with oral acetazolamide 12.92 mg/kg. The intraocular pressure was measured at 0, 0.5, 1, 4, 8, 12 hrs. After 6 hours, one more administration of ophthalmic composition of Example 1 was instilled in Group 1 of Rabbits and the intraocular pressure was measured.
# The percentage change in the intraocular pressure is depicted in the following table 1.
# [2] = cited from earlier work
smiles,measurement,setting,value
"CC(=O)Nc1nnc(S(N)(=O)=O)s1 [Oral acetazolamide, acetazolamide]",percentage change in the intraocular pressure,"[1]; 0.5 hrs after administration, 4 per group, eye drops instilled",18.00%
same,percentage change in the intraocular pressure,"[1]; 1 hr after administration, eye drops instilled",14.00%
same,percentage change in the intraocular pressure,"[1]; 4 hrs after administration, eye drops instilled",14.00%
same,percentage change in the intraocular pressure,"[1]; 6 hrs after administration, eye drops instilled",14.00%
same,percentage change in the intraocular pressure,"[1]; 8 hrs after administration, Group 1 (Example 1) had a second instillation after 6 hours",6.00%
same,percentage change in the intraocular pressure,"[1]; 12 hrs after administration, Group 1 (Example 1) had a second instillation after 6 hours",6.00%
same,solubility in water,[2],very low solubility in water
